# Measured values from patent US9695155B2, “Herbicidal substituted pyrimidinyloxy benzene compounds” (E. I. DU PONT DE NEMOURS AND COMPANY, priority 2013, dated 2017).
# Columns and labels:
# rice = assay: Test B flooded paddy test; format: in vivo, Oryza sativa; conditions: Flood, 250 g ai/ha; 0 to 100 scale where 0 is no effect and 100 is complete control
# Procedure, shortened: (§1)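 Plants at 2-leaf stage; pots flooded to 3 cm above soil and compound applied directly into paddy water, depth held throughout. After 13 to 15 days in greenhouse, visual rating versus controls on 0 (no effect) to 100 (complete control) scale.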
# Heteranthera limosa = assay: Test B flooded paddy test; format: in vivo; conditions: Flood, 250 g ai/ha; 0 to 100 scale where 0 is no effect and 100 is complete control
# Procedure, shortened: as §1
# wheat, winter = assay: Test C preemergence; format: in vivo, Triticum aestivum; conditions: for Wheat plant response rating: preemergence
# Procedure, shortened: (§2)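 Seeds were sown in loam–sand blend and sprayed preemergence, while plants at 1- to 4-leaf stage (2–18 cm) in peat-based medium received postemergence sprays; test chemicals were formulated in a non-phytotoxic solvent with surfactant. After 13–15 days in a greenhouse, injury was rated visually against controls, 0 (no effect) to 100 (complete control).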
# lambsquarters [1] = assay: Test C preemergence; format: in vivo, Chenopodium album; conditions: for Lambsquarters plant response rating: preemergence
# Procedure, shortened: as §2
# yellow nutsedge = assay: Test C preemergence; format: in vivo, Cyperus esculentus; conditions: for Nutsedge, Yellow plant response rating: preemergence
# Procedure, shortened: as §2
# pigweed [2] = assay: Test C preemergence; format: in vivo, Amaranthus retroflexus; conditions: for Pigweed plant response rating: preemergence
# Procedure, shortened: as §2
# blackgrass = assay: Test C postemergence; format: in vivo, Alopecurus myosuroides; conditions: for Blackgrass plant response rating / Plant response rating, Blackgrass: scale 0 to 100 (0 no effect, 100 complete control)
# Procedure, shortened: as §2
# Italian ryegrass = assay: Test C postemergence; format: in vivo, Lolium multiflorum
# Procedure, shortened: as §2
# lambsquarters [3] = assay: Test C postemergence; format: in vivo, Chenopodium album
# Procedure, shortened: as §2
# pigweed [4] = assay: Test C postemergence; format: in vivo, Amaranthus retroflexus
# Procedure, shortened: as §2
# soybean = assay: Test C postemergence; format: in vivo, Glycine max
# Procedure, shortened: as §2
# barnyardgrass = assay: Test C postemergence; format: in vivo, Echinochloa crus-galli; conditions: for Barnyardgrass plant response rating / Plant response rating, Barnyardgrass: scale 0 to 100 (0 no effect, 100 complete control)
# Procedure, shortened: as §2
# kochia = assay: Test C postemergence; format: in vivo, Kochia scoparia; conditions: for Kochia plant response rating / Plant response rating, Kochia: scale 0 to 100 (0 no effect, 100 complete control)
# Procedure, shortened: as §2
# [5] = 16 g ai/ha, scale 0 to 100 (0 no effect, 100 complete control)
# [6] = 62 g ai/ha, scale 0 (no effect) to 100 (complete control)
# [7] = 125 g ai/ha, scale 0 (no effect) to 100 (complete control)
# [8] = 16 g ai/ha, postemergence, 0 is no effect, 100 is complete control
# [9] = 31 g ai/ha, postemergence, visual rating, 13 to 15 days
# [10] = 125 g ai/ha, postemergence, visual rating
# [11] = 31 g ai/ha, postemergence, visual rating, scale 0 to 100 (0 no effect, 100 complete control), 13 to 15 days
# [12] = 125 g ai/ha, postemergence, visual rating, scale 0 to 100 (0 no effect, 100 complete control)
# [13] = Postemergence, 62 g ai/ha, scale 0 to 100 (0 no effect, 100 complete control)
# [14] = Preemergence, 31 g ai/ha, scale 0 to 100, 0 no effect, 100 complete control
# [15] = 16 g ai/ha, postemergence, visual rating, 13 to 15 days
# [16] = Postemergence, 31 g ai/ha, 13 to 15 days
# [17] = Postemergence, 31 g ai/ha, scale 0 to 100 (0 no effect, 100 complete control), 13 to 15 days
smiles,measurement,setting,value
FCc1cn(-c2c(F)cccc2Oc2ncc(Cl)cn2)nn1 [Compound 154],"Plant response rating, Rice",rice,10
same,"Plant response rating, Ducksalad",Heteranthera limosa,80
same,Wheat plant response rating,"wheat, winter; [5]",0
same,Wheat plant response rating,"wheat, winter; [6]",0
same,Wheat plant response rating,"wheat, winter; [7]",5
same,Lambsquarters plant response rating,lambsquarters [1]; [5],70
same,Lambsquarters plant response rating,lambsquarters [1]; [6],90
same,Lambsquarters plant response rating,lambsquarters [1]; [7],100
same,"Nutsedge, Yellow plant response rating",yellow nutsedge; [5],0
same,"Nutsedge, Yellow plant response rating",yellow nutsedge; [6],5
same,"Nutsedge, Yellow plant response rating",yellow nutsedge; [7],65
same,Pigweed plant response rating,pigweed [2]; [5],85
same,Pigweed plant response rating,pigweed [2]; [6],100
same,Pigweed plant response rating,pigweed [2]; [7],100
same,"Plant response rating (0 to 100), Blackgrass",blackgrass; [8],0
same,Blackgrass plant response rating,blackgrass; [9],0
same,"Plant response rating, Blackgrass",blackgrass; [10],0
same,"Plant response rating, Blackgrass","blackgrass; Postemergence, 62 g ai/ha",0
same,"Plant response rating (0 to 100), Ryegrass, Italian",Italian ryegrass; [8],0
same,"Ryegrass, Italian plant response rating",Italian ryegrass; [11],0
same,"Plant response rating, Ryegrass, Italian",Italian ryegrass; [12],0
same,"Plant response rating, Ryegrass, Italian",Italian ryegrass; [13],0
same,"Plant response rating (0 to 100), Lambsquarters",lambsquarters [3]; [8],20
same,Lambsquarters plant response rating,lambsquarters [3]; [11],55
same,"Plant response rating, Lambsquarters",lambsquarters [3]; [12],70
same,"Plant response rating, Lambsquarters",lambsquarters [3]; [13],60
same,"Plant response rating (0 to 100), Pigweed",pigweed [4]; [8],25
same,Pigweed plant response rating,pigweed [4]; [11],30
same,"Plant response rating, Pigweed",pigweed [4]; [12],75
same,"Plant response rating, Pigweed",pigweed [4]; [13],60
same,"Plant response rating (0 to 100), Soybean",soybean; [8],40
same,Soybean plant response rating,soybean; [11],65
same,"Plant response rating, Soybean",soybean; [12],75
same,"Plant response rating, Soybean",soybean; [13],65
same,"Plant response rating (0 to 100), Barnyardgrass",barnyardgrass; [8],5
same,Barnyardgrass plant response rating,barnyardgrass; [9],5
same,"Plant response rating, Barnyardgrass",barnyardgrass; [10],20
same,"Plant response rating, Barnyardgrass","barnyardgrass; Postemergence, 62 g ai/ha",10
same,"Plant response rating (0 to 100), Kochia",kochia; [8],50
same,Kochia plant response rating,kochia; [9],50
same,"Plant response rating, Kochia",kochia; [10],80
same,"Plant response rating, Kochia","kochia; Postemergence, 62 g ai/ha",80
CCOc1cnn(-c2c(C#N)cccc2Oc2ncc(F)cn2)c1 [Compound 89],"Plant response rating, Rice",rice,20
same,"Plant response rating, Ducksalad",Heteranthera limosa,95
same,Wheat plant response rating,"wheat, winter; [5]",0
same,Wheat plant response rating,"wheat, winter; [6]",0
same,Wheat plant response rating,"wheat, winter; [7]",5
same,"Plant response rating, Wheat","wheat, winter; [14]",0
same,Lambsquarters plant response rating,lambsquarters [1]; [5],45
same,Lambsquarters plant response rating,lambsquarters [1]; [6],95
same,Lambsquarters plant response rating,lambsquarters [1]; [7],100
same,"Plant response rating, Lambsquarters",lambsquarters [1]; [14],80
same,"Nutsedge, Yellow plant response rating",yellow nutsedge; [5],0
same,"Nutsedge, Yellow plant response rating",yellow nutsedge; [6],10
same,"Nutsedge, Yellow plant response rating",yellow nutsedge; [7],70
same,"Plant response rating, Nutsedge, Yellow",yellow nutsedge; [14],5
same,Pigweed plant response rating,pigweed [2]; [5],55
same,Pigweed plant response rating,pigweed [2]; [6],100
same,Pigweed plant response rating,pigweed [2]; [7],100
same,"Plant response rating, Pigweed",pigweed [2]; [14],90
same,Blackgrass plant response rating,blackgrass; [15],0
same,"Plant response rating (0 to 100), Blackgrass","blackgrass; 125 g ai/ha, postemergence",5
same,"Plant response rating, Blackgrass",blackgrass; [16],0
same,"Plant response rating, Blackgrass","blackgrass; Postemergence, 62 g ai/ha",5
same,"Plant response rating (0 to 100), Ryegrass, Italian","Italian ryegrass; 125 g ai/ha, postemergence",5
same,"Plant response rating, Ryegrass, Italian",Italian ryegrass; [17],0
same,"Plant response rating, Ryegrass, Italian",Italian ryegrass; [13],5
same,"Plant response rating (0 to 100), Lambsquarters","lambsquarters [3]; 125 g ai/ha, postemergence",55
same,"Plant response rating, Lambsquarters",lambsquarters [3]; [17],30
same,"Plant response rating, Lambsquarters",lambsquarters [3]; [13],65
same,"Plant response rating (0 to 100), Pigweed","pigweed [4]; 125 g ai/ha, postemergence",40
same,"Plant response rating, Pigweed",pigweed [4]; [17],35
same,"Plant response rating, Pigweed",pigweed [4]; [13],35
same,"Plant response rating (0 to 100), Soybean","soybean; 125 g ai/ha, postemergence",95
same,"Plant response rating, Soybean",soybean; [17],65
same,"Plant response rating, Soybean",soybean; [13],90
same,Barnyardgrass plant response rating,barnyardgrass; [15],0
same,"Plant response rating (0 to 100), Barnyardgrass","barnyardgrass; 125 g ai/ha, postemergence",5
same,"Plant response rating, Barnyardgrass",barnyardgrass; [16],5
same,"Plant response rating, Barnyardgrass","barnyardgrass; Postemergence, 62 g ai/ha",5
same,Kochia plant response rating,kochia; [15],45
same,"Plant response rating (0 to 100), Kochia","kochia; 125 g ai/ha, postemergence",50
same,"Plant response rating, Kochia",kochia; [16],50
same,"Plant response rating, Kochia","kochia; Postemergence, 62 g ai/ha",60
